Measured values reported in ChEMBL document CHEMBL3885881, “DrugMatrix”.

Species: Rattus norvegicus
Assay: DrugMatrix - Regimen: Daily Repeat
Format: toxicity, organism-based, Sprague-Dawley
Parameters: regimen Daily Repeat, gender Male, age 6-8 weeks
Details: in vivo, iv, vehicle 100 % SALINE; for ABSOLUTE BASOPHIL / ABSOLUTE EOSINOPHIL / ABSOLUTE LYMPHOCYTE / ABSOLUTE MONOCYTE / ABSOLUTE SEGMENTED NEUTROPHIL / BASOPHIL / EOSINOPHIL / ERYTHROCYTE COUNT / HEMATOCRIT / HEMOGLOBIN / LEUKOCYTE COUNT / LYMPHOCYTE / MEAN CORPUSCULAR HEMOGLOBIN / MEAN CORPUSCULAR HEMOGLOBIN CONCENTRATION / MEAN CORPUSCULAR VOLUME / MONOCYTE / NEUTROPHIL / NUCLEATED RED BLOOD CELLS / PLATELET COUNT: tissue Blood; for ALANINE AMINOTRANSFERASE / ALBUMIN / ALKALINE PHOSPHATASE / ASPARTATE AMINOTRANSFERASE / BLOOD UREA NITROGEN / CARBON DIOXIDE / CHLORIDE / CHOLESTEROL / CREATINE PHOSPHOKINASE / CREATININE / GLUCOSE / LACTATE DEHYDROGENASE / LIPASE / PHOSPHORUS / POTASSIUM / SODIUM / TOTAL BILIRUBIN / TOTAL PROTEIN / URIC ACID: tissue Plasma
[1] = 0 mg/kg, 72 h, dose level Control, time 3 day
[2] = 0 mg/kg, 120 h, dose level Control, time 5 day
[3] = 29 mg/kg, 72 h, dose level Low, time 3 day

## C[n+]1ccccc1/C=N/O.[Cl-] [PRALIDOXIME CHLORIDE]
[1]
  ABSOLUTE BASOPHIL: 0 CELLS/uL
  ABSOLUTE EOSINOPHIL: 53.17 CELLS/uL
  ABSOLUTE LYMPHOCYTE: 13731.5 CELLS/uL
  ABSOLUTE MONOCYTE: 186.17 CELLS/uL
  ABSOLUTE SEGMENTED NEUTROPHIL: 1645.83 CELLS/uL
  BASOPHIL: 0%
  EOSINOPHIL: 0.33%
  ERYTHROCYTE COUNT: 5.57 x10E6/uL
  HEMATOCRIT: 36.33%
  HEMOGLOBIN: 13.47 G/DL
  LEUKOCYTE COUNT: 15.62 x10E3/uL
  LYMPHOCYTE: 88.5%
  MEAN CORPUSCULAR HEMOGLOBIN: 24.22 pg
  MEAN CORPUSCULAR HEMOGLOBIN CONCENTRATION: 37.1 G/DL
  MEAN CORPUSCULAR VOLUME: 65.35 fL
  MONOCYTE: 1.17%
  NEUTROPHIL: 10%
  NUCLEATED RED BLOOD CELLS: 0.17 /100WBC
  PLATELET COUNT: 1295.5 x10E3/uL
  ALANINE AMINOTRANSFERASE: 46.83 u/L
  ALBUMIN: 4.37 G/DL
  ALKALINE PHOSPHATASE: 414.33 u/L
  ASPARTATE AMINOTRANSFERASE: 72.5 u/L
  BLOOD UREA NITROGEN: 17 mg/dL
  CARBON DIOXIDE: 23.5 mmol/L
  CHLORIDE: 102 MEQ/L
  CHOLESTEROL: 80.33 mg/dL
  CREATINE PHOSPHOKINASE: 207.83 u/L
  CREATININE: 0.22 mg/dL
  GLUCOSE: 172.17 mg/dL
  LACTATE DEHYDROGENASE: 131 u/L
  LIPASE: 10.33 u/L
  PHOSPHORUS: 11.75 mg/dL
  POTASSIUM: 6.83 MEQ/L
  SODIUM: 145.28 MEQ/L
  TOTAL BILIRUBIN: 0.22 mg/dL
  TOTAL PROTEIN: 6.22 G/DL
  URIC ACID: 1.9 mg/dL
[2]
  ABSOLUTE BASOPHIL: 0 CELLS/uL
  ABSOLUTE EOSINOPHIL: 33 CELLS/uL
  ABSOLUTE LYMPHOCYTE: 12184 CELLS/uL
  ABSOLUTE MONOCYTE: 108 CELLS/uL
  ABSOLUTE SEGMENTED NEUTROPHIL: 958.33 CELLS/uL
  BASOPHIL: 0%
  EOSINOPHIL: 0.17%
  ERYTHROCYTE COUNT: 5.9 x10E6/uL
  HEMATOCRIT: 36.58%
  HEMOGLOBIN: 13.33 G/DL
  LEUKOCYTE COUNT: 13.28 x10E3/uL
  LYMPHOCYTE: 91.17%
  MEAN CORPUSCULAR HEMOGLOBIN: 22.67 pg
  MEAN CORPUSCULAR HEMOGLOBIN CONCENTRATION: 36.47 G/DL
  MEAN CORPUSCULAR VOLUME: 62.13 fL
  MONOCYTE: 0.83%
  NEUTROPHIL: 7.83%
  NUCLEATED RED BLOOD CELLS: 0.33 /100WBC
  PLATELET COUNT: 1475.33 x10E3/uL
  ALANINE AMINOTRANSFERASE: 47 u/L
  ALBUMIN: 4.35 G/DL
  ALKALINE PHOSPHATASE: 368.33 u/L
  ASPARTATE AMINOTRANSFERASE: 90.83 u/L
  BLOOD UREA NITROGEN: 15.5 mg/dL
  CARBON DIOXIDE: 26.5 mmol/L
  CHLORIDE: 103.33 MEQ/L
  CHOLESTEROL: 71.83 mg/dL
  CREATINE PHOSPHOKINASE: 585.33 u/L
  CREATININE: 0.19 mg/dL
  GLUCOSE: 171.17 mg/dL
  LACTATE DEHYDROGENASE: 388.83 u/L
  LIPASE: 10.83 u/L
  PHOSPHORUS: 11.75 mg/dL
  POTASSIUM: 6.21 MEQ/L
  SODIUM: 143.7 MEQ/L
  TOTAL BILIRUBIN: 0.17 mg/dL
  TOTAL PROTEIN: 6.17 G/DL
  URIC ACID: 1.98 mg/dL
[3]
  ABSOLUTE BASOPHIL: 0 CELLS/uL
  ABSOLUTE EOSINOPHIL: 0 CELLS/uL
  ABSOLUTE LYMPHOCYTE: 13602.67 CELLS/uL
  ABSOLUTE MONOCYTE: 59 CELLS/uL
  ABSOLUTE SEGMENTED NEUTROPHIL: 1538.33 CELLS/uL
  BASOPHIL: 0%
  EOSINOPHIL: 0%
  ERYTHROCYTE COUNT: 5.23 x10E6/uL
  HEMATOCRIT: 33.13%
  HEMOGLOBIN: 12.77 G/DL
  LEUKOCYTE COUNT: 15.2 x10E3/uL
  LYMPHOCYTE: 89.67%
  MEAN CORPUSCULAR HEMOGLOBIN: 24.4 pg
  MEAN CORPUSCULAR HEMOGLOBIN CONCENTRATION: 38.53 G/DL
  MEAN CORPUSCULAR VOLUME: 63.37 fL
  MONOCYTE: 0.33%
  NEUTROPHIL: 10%
  NUCLEATED RED BLOOD CELLS: 0.33 /100WBC
  PLATELET COUNT: 1243.67 x10E3/uL
  ALANINE AMINOTRANSFERASE: 60 u/L
  ALBUMIN: 4.27 G/DL
  ALKALINE PHOSPHATASE: 485.33 u/L
  ASPARTATE AMINOTRANSFERASE: 76.33 u/L
  BLOOD UREA NITROGEN: 18.67 mg/dL
  CARBON DIOXIDE: 25 mmol/L
  CHLORIDE: 104.67 MEQ/L
  CHOLESTEROL: 77.67 mg/dL
  CREATINE PHOSPHOKINASE: 170 u/L
  CREATININE: 0.26 mg/dL
  GLUCOSE: 180.67 mg/dL
  LACTATE DEHYDROGENASE: 87.67 u/L
  LIPASE: 11 u/L
  PHOSPHORUS: 13.93 mg/dL
  POTASSIUM: 6.97 MEQ/L
  SODIUM: 146.7 MEQ/L
  TOTAL BILIRUBIN: 0.23 mg/dL
  TOTAL PROTEIN: 5.97 G/DL
  URIC ACID: 1.47 mg/dL
